Values of other authors, collected in patent US11798661B2, “Methods for lowering blood pressure with a dihydropyridine-type calcium channel blocker pharmaceutical composition” (A[…] Limited, priority 2018, dated 2023).

Details: co-administration of 240 mL grapefruit juice with a single oral dose of amlodipine 10 mg

effect on the pharmacokinetics of amlodipine: no significant effect
Compound: CCOC(=O)C1=C(COCCN)NC(C)=C(C(=O)OC)C1c1ccccc1Cl (racemic) [amlodipine, (RS)-3-ethyl 5-methyl 2-[(2-aminoethoxy)methyl]-4-(2-chlorophenyl)-6-methyl-1,4-dihydropyridine-3,5-dicarboxylate]
